Measured values: patent publication US20250332266A1, “COMPOUNDS FOR THE DEGRADATION OF EGFR KINASE” (BeiGene Switzerland GmbH, priority 2022, published 2025)

Experiments:
[1] = target: EGFR Del19/T790M/C797S (H1975-clone #28) (Homo sapiens, UniProt P00533, T790M/C797S, form not given); assay: EGFR degradation, HTRF total-EGFR assay, H1975-clone #28 (DTC); assay type: cell-based; conditions: H1975-clone #28 Del19/T790M/C797S, 16 h treatment
In short: (§1)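 H1975 clones with endogenous EGFR knocked out and homozygous exogenous EGFR mutants (#28 Del19/T790M/C797S; #25 L858R/T790M/C797S) treated 16 h at 37 °C, 8 doses, 5-fold from 10 μM, 0.2% DMSO. Total EGFR measured by HTRF on lysates, normalised to DMSO controls; DC50 and Dmax from curve fit.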

[2] = target: T1, EGFR L858R/T790M/C797S (H1975-clone #25) (Homo sapiens, UniProt P00533, C797S/L858R/T790M); assay: EGFR degradation, HTRF total-EGFR assay, H1975-clone #25 (LTC); assay type: cell-based; conditions: H1975-clone #25 L858R/T790M/C797S, 16 h treatment
T1 construct: expressed in transfected cells; host or cells: H1975 (clone #25), lentiviral transduction, endogenous EGFR knocked out
T1 sequence (P00533 25-1210 T790M/C797S/L858R): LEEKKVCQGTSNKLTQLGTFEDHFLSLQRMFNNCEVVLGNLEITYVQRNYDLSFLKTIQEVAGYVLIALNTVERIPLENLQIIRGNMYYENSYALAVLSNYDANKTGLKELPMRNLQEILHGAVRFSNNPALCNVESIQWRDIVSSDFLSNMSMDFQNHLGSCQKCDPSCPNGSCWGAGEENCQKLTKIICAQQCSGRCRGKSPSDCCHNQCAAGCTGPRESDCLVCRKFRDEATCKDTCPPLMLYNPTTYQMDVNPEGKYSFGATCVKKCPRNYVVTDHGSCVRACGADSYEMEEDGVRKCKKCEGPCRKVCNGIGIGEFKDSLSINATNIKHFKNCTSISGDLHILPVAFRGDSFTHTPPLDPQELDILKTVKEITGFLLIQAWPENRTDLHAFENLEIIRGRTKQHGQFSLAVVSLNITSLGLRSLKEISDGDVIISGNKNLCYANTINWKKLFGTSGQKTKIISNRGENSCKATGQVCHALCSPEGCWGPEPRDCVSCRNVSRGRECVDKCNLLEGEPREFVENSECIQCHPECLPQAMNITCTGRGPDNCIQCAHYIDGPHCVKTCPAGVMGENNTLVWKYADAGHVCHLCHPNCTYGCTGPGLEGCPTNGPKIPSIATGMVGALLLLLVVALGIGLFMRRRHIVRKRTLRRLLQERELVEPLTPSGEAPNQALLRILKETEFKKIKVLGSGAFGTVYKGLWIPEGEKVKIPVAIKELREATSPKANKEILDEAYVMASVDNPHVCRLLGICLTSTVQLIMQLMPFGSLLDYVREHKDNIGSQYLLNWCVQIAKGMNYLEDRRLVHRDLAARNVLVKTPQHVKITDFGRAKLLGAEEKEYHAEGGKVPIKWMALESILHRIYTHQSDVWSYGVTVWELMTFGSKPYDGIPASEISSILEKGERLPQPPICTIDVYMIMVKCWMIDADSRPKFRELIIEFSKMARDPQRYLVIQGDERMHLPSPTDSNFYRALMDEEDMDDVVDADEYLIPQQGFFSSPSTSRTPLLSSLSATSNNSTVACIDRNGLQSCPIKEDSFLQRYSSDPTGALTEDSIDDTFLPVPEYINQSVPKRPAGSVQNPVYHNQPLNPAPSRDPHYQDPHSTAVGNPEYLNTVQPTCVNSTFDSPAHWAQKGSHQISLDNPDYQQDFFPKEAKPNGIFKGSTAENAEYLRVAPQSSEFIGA
In short: as §1

Sequence of EGFR Del19/T790M/C797S (H1975-clone #28) (P00533 with tags, fused parts or gaps DEL746-750/T790M/C797S, form open): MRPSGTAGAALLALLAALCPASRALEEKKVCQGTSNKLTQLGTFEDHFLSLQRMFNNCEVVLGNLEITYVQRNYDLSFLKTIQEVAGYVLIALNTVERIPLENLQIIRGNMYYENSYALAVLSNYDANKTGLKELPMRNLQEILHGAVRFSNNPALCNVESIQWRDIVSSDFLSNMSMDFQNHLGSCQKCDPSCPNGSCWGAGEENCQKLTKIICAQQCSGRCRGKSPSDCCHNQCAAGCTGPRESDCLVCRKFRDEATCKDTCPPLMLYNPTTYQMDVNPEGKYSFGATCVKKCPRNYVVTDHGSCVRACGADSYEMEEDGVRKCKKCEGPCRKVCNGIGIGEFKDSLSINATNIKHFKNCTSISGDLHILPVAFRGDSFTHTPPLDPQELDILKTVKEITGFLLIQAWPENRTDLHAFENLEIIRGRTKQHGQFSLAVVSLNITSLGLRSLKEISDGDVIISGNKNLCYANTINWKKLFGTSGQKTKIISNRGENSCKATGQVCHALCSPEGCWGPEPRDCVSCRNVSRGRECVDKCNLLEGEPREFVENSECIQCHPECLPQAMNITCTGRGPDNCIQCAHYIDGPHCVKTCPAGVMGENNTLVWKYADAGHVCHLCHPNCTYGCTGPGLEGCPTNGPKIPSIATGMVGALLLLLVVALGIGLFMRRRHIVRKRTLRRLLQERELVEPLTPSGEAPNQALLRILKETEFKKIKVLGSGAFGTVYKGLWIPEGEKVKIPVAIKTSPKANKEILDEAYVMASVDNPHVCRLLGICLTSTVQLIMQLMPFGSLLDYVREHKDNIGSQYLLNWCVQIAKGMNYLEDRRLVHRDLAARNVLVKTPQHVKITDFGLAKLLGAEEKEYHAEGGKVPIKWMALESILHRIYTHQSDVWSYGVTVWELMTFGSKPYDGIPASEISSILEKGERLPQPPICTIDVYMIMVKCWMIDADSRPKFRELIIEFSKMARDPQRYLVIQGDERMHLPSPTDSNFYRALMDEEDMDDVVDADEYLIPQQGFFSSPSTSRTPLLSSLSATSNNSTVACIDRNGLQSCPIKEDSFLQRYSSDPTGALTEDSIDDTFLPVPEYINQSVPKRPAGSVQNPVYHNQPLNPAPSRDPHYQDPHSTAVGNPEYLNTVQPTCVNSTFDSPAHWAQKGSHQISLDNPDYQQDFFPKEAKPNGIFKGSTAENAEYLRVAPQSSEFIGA

Row | Degradation H1975 # 28 DTC [1] | Degradation H1975 # 25-LTC [2] | SMILES
1 | 78.0 | 87.7 | Cc1cc2cc(n1)-c1cnn(C)c1OC[C@H]1C[C@@H](CN3/C(=N/C2=O)Nc2ccc(N4CCN(C5CCN(c6ccc(C7CCC(=O)NC7=O)nc6)CC5)C[C@@H]4C)cc23)C1 (stereo partly drawn) [Example 36, 3-(5-(4-((S)-4-((7^1s,7^3R,E)-1^1,2^6-dimethyl-3-oxo-5^2,5^3-dihydro-1^1H,5^1H-9-oxa-4-aza-5(2,1)-benzo[d]imidazola-2(2,4)-pyridina-1(4,5)-pyrazola-7(1,3)-cyclobutanacyclononaphane-5^6-yl)-3-methylpiperazin-1-yl)piperidin-1-yl)pyridin-2-yl)piperidine-2,6-dione]
2 | 79.4 | 80.7 | Cc1cc2cc(n1)-c1cnn(C)c1OC[C@H]1C[C@@H](CN3/C(=N/C2=O)Nc2ccc(N4CCN(CC5CN(c6cnc(C7CCC(=O)NC7=O)cc6C)C5)C[C@@H]4C)cc23)C1 (stereo partly drawn) [Example 37, 3-(5-(3-(((S)-4-((7^1s,7^3R,E)-1^1,2^6-dimethyl-3-oxo-5^2,5^3-dihydro-1^1H,5^1H-9-oxa-4-aza-5(2,1)-benzo[d]imidazola-2(2,4)-pyridina-1(4,5)-pyrazola-7(1,3)-cyclobutanacyclononaphane-5^6-yl)-3-methylpiperazin-1-yl)methyl)azetidin-1-yl)-4-methylpyridin-2-yl)piperidine-2,6-dione]
3 | 91.5 | 93.6 | Cc1cc2cc(n1)-c1cnn(C)c1OC[C@H]1C[C@@H](CN3/C(=N/C2=O)Nc2ccc(N4CCN(C5CCN(c6cnc(C7CCC(=O)NC7=O)cc6C)CC5)CC4)cc23)C1 (stereo partly shown) [Example 40, 3-(5-(4-(4-((7^1s,7^3s,E)-1^1,2^6-dimethyl-3-oxo-5^2,5^3-dihydro-1^1H,5^1H-9-oxa-4-aza-5(2,1)-benzo[d]imidazola-2(2,4)-pyridina-1(4,5)-pyrazola-7(1,3)-cyclobutanacyclononaphane-5^6-yl)piperazin-1-yl)piperidin-1-yl)-4-methylpyridin-2-yl)piperidine-2,6-dione]
4 | 80.1 | 84.2 | Cc1cc2cc(n1)-c1cnn(C)c1OC[C@H]1C[C@@H](CN3/C(=N/C2=O)Nc2ccc(N(C)C4CN(C5CCN(c6cnc(C7CCC(=O)NC7=O)cc6C)CC5)C4)cc23)C1 (stereo partly shown) [Example 41, 3-(5-(4-(3-(((7^1s,7^3s,E)-1^1,2^6-dimethyl-3-oxo-5^2,5^3-dihydro-1^1H,5^1H-9-oxa-4-aza-5(2,1)-benzo[d]imidazola-2(2,4)-pyridina-1(4,5)-pyrazola-7(1,3)-cyclobutanacyclononaphane-5^6-yl)(methyl)amino)azetidin-1-yl)piperidin-1-yl)-4-methylpyridin-2-yl)piperidine-2,6-dione]
5 | 75.5 | 87.1 | Cc1cc2cc(n1)-c1cnn(C)c1OC[C@H]1C[C@@H](CN3/C(=N/C2=O)Nc2ccc(N4C[C@H]5C[C@@H]4CN5C4CCN(c5ccc(C6CCC(=O)NC6=O)nc5C)CC4)cc23)C1 (stereo partly drawn) [Example 43, 3-(5-(4-((1R,4R)-5-((7^1s,7^3S,E)-1^1,2^6-dimethyl-3-oxo-5^2,5^3-dihydro-1^1H,5^1H-9-oxa-4-aza-5(2,1)-benzo[d]imidazola-2(2,4)-pyridina-1(4,5)-pyrazola-7(1,3)-cyclobutanacyclononaphane-5^6-yl)-2,5-diazabicyclo[2.2.1]heptan-2-yl)piperidin-1-yl)-6-methylpyridin-2-yl)piperidine-2,6-dione]
6 | 80.7 | 91.3 | Cc1cc2cc(n1)-c1cnn(C)c1OC[C@H]1C[C@@H](CN3/C(=N/C2=O)Nc2ccc(N4CCC(N5CCN(c6ccc(C7CCC(=O)NC7=O)nc6C)C[C@@H]5C)CC4)cc23)C1 (stereo partly drawn) [Example 44, 3-(5-((S)-4-(1-((7^1s,7^3R,E)-1^1,2^6-dimethyl-3-oxo-5^2,5^3-dihydro-1^1H,5^1H-9-oxa-4-aza-5(2,1)-benzo[d]imidazola-2(2,4)-pyridina-1(4,5)-pyrazola-7(1,3)-cyclobutanacyclononaphane-5^6-yl)piperidin-4-yl)-3-methylpiperazin-1-yl)-6-methylpyridin-2-yl)piperidine-2,6-dione]
7 | 78.5 | 93.3 | Cc1cc2cc(n1)-c1cnn(C)c1OC[C@H]1C[C@@H](CN3/C(=N/C2=O)Nc2ccc(N4CCC(N5C[C@@H]6C[C@H]5CN6c5ccc(C6CCC(=O)NC6=O)nc5C)CC4)cc23)C1 (stereo partly drawn) [Example 47, 3-(5-((1S,4S)-5-(1-((7^1s,7^3R,E)-1^1,2^6-dimethyl-3-oxo-5^2,5^3-dihydro-1′H,5^1H-9-oxa-4-aza-5(2,1)-benzo[d]imidazola-2(2,4)-pyridina-1(4,5)-pyrazola-7(1,3)-cyclobutanacyclononaphane-5^6-yl)piperidin-4-yl)-2,5-diazabicyclo[2.2.1]heptan-2-yl)-6-methylpyridin-2-yl)piperidine-2,6-dione]
8 | 87.5 | 89.9 | Cc1cc2cc(n1)-c1cnn(C)c1OC[C@H]1C[C@@H](CN3/C(=N/C2=O)Nc2ccc(N4CCN([C@@H]5CCN(c6ccc(C7CCC(=O)NC7=O)nc6C)C[C@H]5F)CC4)cc23)C1 (stereo partly drawn) [Example 57, 3-(5-((3R,4R)-4-(4-((7^1s,7^3S,E)-1^1,2^6-dimethyl-3-oxo-5^2,5^3-dihydro-1^1H,5^1H-9-oxa-4-aza-5(2,1)-benzo[d]imidazola-2(2,4)-pyridina-1(4,5)-pyrazola-7(1,3)-cyclobutanacyclononaphane-5^6-yl)piperazin-1-yl)-3-fluoropiperidin-1-yl)-6-methylpyridin-2-yl)piperidine-2,6-dione]
9 | 89.1 | 91.5 | Cc1cc2cc(n1)-c1cnn(C)c1OC[C@H]1C[C@@H](CN3/C(=N/C2=O)Nc2ccc(N4CCN([C@@H]5CCN(c6ccc(C7CCC(=O)NC7=O)nc6C)C[C@@H]5F)CC4)cc23)C1 (stereo partly drawn) [Example 62, 3-(5-((3S,4R)-4-(4-((7^1s,7^3S,E)-1^1,2^6-dimethyl-3-oxo-5^2,5^3-dihydro-1^1H,5^1H-9-oxa-4-aza-5(2,1)-benzo[d]imidazola-2(2,4)-pyridina-1(4,5)-pyrazola-7(1,3)-cyclobutanacyclononaphane-5^6-yl)piperazin-1-yl)-3-fluoropiperidin-1-yl)-6-methylpyridin-2-yl)piperidine-2,6-dione]
10 | 82.1 | 75.9 | Cc1cc2cc(n1)-c1cnn(C)c1OC[C@H]1C[C@@H](CN3/C(=N/C2=O)Nc2ccc(N4CCN([C@@H]5CCN(c6cc(F)c([C@H]7CCC(=O)NC7=O)c(F)c6)C[C@@H]5F)CC4)cc23)C1 [Example 66, (R)-3-(4-((3S,4R)-4-(4-((7^1s,7^3S,E)-1^1,2^6-dimethyl-3-oxo-5^2,5^3-dihydro-1^1H,5^1H-9-oxa-4-aza-5(2,1)-benzo[d]imidazola-2(2,4)-pyridina-1(4,5)-pyrazola-7(1,3)-cyclobutanacyclononaphane-5^6-yl)piperazin-1-yl)-3-fluoropiperidin-1-yl)-2,6-difluorophenyl)piperidine-2,6-dione]
11 | 88.7 | 91.8 | Cc1cc2cc(n1)-c1cnn(C)c1OC[C@H]1C[C@@H](CN3/C(=N/C2=O)Nc2ccc(N4CCC(N5CCN(c6cc(F)c([C@H]7CCC(=O)NC7=O)c(F)c6)CC5=O)CC4)cc23)C1 [Example 70, (R)-3-(4-(4-(1-((7^1s,7^3s,E)-1^1,2^6-dimethyl-3-oxo-5^2,5^3-dihydro-1^1H,5^1H-9-oxa-4-aza-5(2,1)-benzo[d]imidazola-2(2,4)-pyridina-1(4,5)-pyrazola-7(1,3)-cyclobutanacyclononaphane-5^6-yl)piperidin-4-yl)-3-oxopiperazin-1-yl)-2,6-difluorophenyl)piperidine-2,6-dione]
12 | 79.5 | 90.3 | Cc1cc2cc(n1)-c1cnn(C)c1OC[C@H]1C[C@@H](CN3/C(=N/C2=O)Nc2ccc(N4CCN(CCc5ccc(C6CCC(=O)NC6=O)nc5C)CC4)cc23)C1 (stereo partly shown) [Example 82, 3-(5-(2-(4-((7^1s,7^3s,E)-1^1,2^6-dimethyl-3-oxo-5^2,5^3-dihydro-1^1H,5^1H-9-oxa-4-aza-5(2,1)-benzo[d]imidazola-2(2,4)-pyridina-1(4,5)-pyrazola-7(1,3)-cyclobutanacyclononaphane-5^6-yl)piperazin-1-yl)ethyl)-6-methylpyridin-2-yl)piperidine-2,6-dione]
13 | 81.0 | 90.4 | COC[C@@H]1CN(c2ccc3c(c2)N2C[C@H]4C[C@@H](COc5c(cnn5C)-c5cc(cc(C)n5)C(=O)/N=C/2N3)C4)CCN1C1CCN(c2ccc(C3CCC(=O)NC3=O)nc2C)CC1 (stereo partly shown) [Example 109]
14 | 82.2 | 90.3 | Cc1cc2cc(n1)-c1cnn(C)c1OC[C@H]1C[C@@H](CN3/C(=N/C2=O)Nc2ccc(N4CCC(N5CCN(c6cnc(C7CCC(=O)NC7=O)cc6C)C[C@@H]5C)CC4)cc23)C1 (stereo partly drawn) [Example 110, 3-(5-((S)-4-(1-((7^1s,7^3R,E)-1^1,2^6-dimethyl-3-oxo-5^2,5^3-dihydro-1^1H,5^1H-9-oxa-4-aza-5(2,1)-benzo[d]imidazola-2(2,4)-pyridina-1(4,5)-pyrazola-7(1,3)-cyclobutanacyclononaphane-5^6-yl)piperidin-4-yl)-3-methylpiperazin-1-yl)-4-methylpyridin-2-yl)piperidine-2,6-dione]
